Source: a melting point compilation (Tetko et al.; mined from patent text by program, amines drawn as free bases though some values may be those of a salt)

SMILES | melting point
COc1ccc(N2CCN(c3ccc(OC)nc3-c3ccc(OCC(F)(F)F)cc3)CC2)cc1 | 104 to 107 °C
COc1cc(OC)c2c(=O)[nH]c(-c3ccc(N4CCC(O)CC4)cc3)nc2n1 | 284 to 286 °C
COc1ccc(Cl)cc1CC1CNC(=O)CN(S(=O)(=O)c2ccc(Cl)cc2)C1=O (stereo not drawn) | 110 to 112 °C
Cc1ncc(C=CC=CC(=O)O)s1 | 220 to 222 °C
Nc1ccc(C(=O)c2cccc(F)c2)cc1 | 98 to 100 °C
COC=Nc1c(C#N)c(C)nn1-c1c(Cl)cc(C(F)(F)F)cc1Cl | 75 to 78 °C
COC(=O)c1nc(N=C=S)ccc1Oc1nc(OC)cc(OC)n1 | 116 to 117 °C
CSC(=NCCSCc1csc(NC(=N)N)n1)NC#N | 127 to 134 °C
Cc1nc(C)c(Cl)c(NCc2nccc(N(C)CCCSCCn3c([N+](=O)[O-])cnc3C)c2Cl)n1 | 123 to 126 °C
Cc1cc(C)c(Nc2nc(C)ccc2S(=O)(=O)c2ccc(OCCCCC#N)cc2)c(C)c1 | 115 to 116 °C
Cc1c(Br)c(C#N)nn1C | 92 to 94 °C
COc1ccc(S(=O)(=O)Nc2nc(-c3cccc4ccccc34)cs2)cc1 | 98 to 100 °C
CC(C)(C)NCC(O)c1cc(Cl)c(NC(=O)NC(C)(C)C)c(Cl)c1 (stereo not drawn) | 167 to 169 °C
O=C(c1ccc(F)cc1)c1ccc(OC(F)(F)F)cc1 | 42 to 43 °C
N#CC(C#N)=C1N(CCCCN2CCCCC2)CCN1CCCN1CCCCC1 | 88 to 90 °C
O=C(CSc1nc[nH]n1)NC/C=C\COc1cc(CN2CCCCC2)ccn1 | 65 to 67 °C
Cc1ccc(C)c(-c2cn(C)cc(-c3cccc(C(F)(F)F)c3)c2=O)c1 | 165 to 167 °C
OCc1c(Br)c(Br)c(Br)c(CO)c1Br | 248 to 252 °C
CC(=O)c1cccc(C2=C(c3ccc(S(N)(=O)=O)cc3)OC(C)(C)C2=O)c1 | 217 to 218 °C
OC(c1ccc2c(c1)SCCN2)(C(F)(F)F)C(F)(F)F | 99 to 100 °C
CC1=Nc2c(C)nn(C)c2C2=NCC(C)(C)N12 | 280 to 283 °C

SMILES | melting point
CC(O)c1cc2c(cn1)CCCC2 (stereo not drawn) | 44 to 45 °C
O=C(OC(c1ccccc1)c1ccccc1)c1c(-c2ccccc2)oc2c(CCl)cccc2c1=O | 186 °C
CN(C)C(=O)c1csc(N(C)CC#CI)n1 | 148 to 150 °C
CSc1cc(C)nc(SC)c1NC(=O)CCCCCCCCSc1nc2ccccc2o1 | 123 to 124 °C
CC[C@@H](C(C)C)[C@H](O)[C@H](O)[C@@H](C)[C@H]1CC[C@H]2[C@@H]3CCC4=CC(=O)CC[C@]4(C)[C@H]3CC[C@]12C | 192 to 194 °C
CC(C)(C)OC(=O)N1CCC2(CC1)CC(=O)N(O)C2=O | 151 to 154 °C
CCOC(=O)c1c(COC(C)=O)cccc1S(N)(=O)=O | 98 to 100 °C
Cc1nn(CCCCO)c(-c2ccc(F)cc2)c1-c1ccc2c(c1)NC(=O)CO2 | 194 to 196 °C
CCOC(=O)C(C#N)=Cc1cc(O)c(O)c([N+](=O)[O-])c1 | 205 to 210 °C
C[C@@H](NC(=O)[C@H](Cc1ccc(O)cc1)NC(=O)OC(C)(C)C)C(=O)NCC(=O)Oc1c(Cl)c(Cl)c(Cl)c(Cl)c1Cl | 222 °C
Cc1cc(O)c(Oc2ccccc2C#N)cc1Br | 99 to 101 °C
COC(=O)c1ccc(/C=C(\C)c2ccc3c(c2)C(C)(C)CCO3)cc1 | 92 to 95 °C
Cn1nc(OCCCc2cc(-c3ccc(C(F)(F)F)cc3)no2)cc1C(=O)O | 162 to 163 °C
CCCc1nc(NC(C)=O)nc(N2CCOCC2)n1 | 141 to 142 °C
CC1(C)Oc2cc([N+](=O)[O-])sc2C(N2CCCCC2=O)C1O (stereo not drawn) | 158 °C
CC(/C=C/C(=O)OC(C)(C)C)=C\c1ccc([N+](=O)[O-])cc1 | 120 to 122 °C
CN(C)S(=O)(=O)NC1CCC(CCN2CCN(c3nccc4c3OCC4)CC2)CC1 (stereo not drawn) | 128 °C
COC(=O)CCCCCCCCOC1OC(CO)C(O)C(OC2OC(CO)C(O)C(O)C2O)C1OC1OC(C)C(O)C(O)C1O (stereo not drawn) | 147 to 150 °C
O=C(Nc1cc(C(F)(F)F)nc(C(F)(F)F)c1)C(=O)Nc1cc(C(F)(F)F)nc(C(F)(F)F)c1 | 271 to 272 °C
Cc1ccc(S(=O)(=O)NC(C)(C)CO)cc1NC(=O)c1cnn2c(C(F)F)cc(-c3ccc(C(F)(F)F)cc3)nc12 | 214 °C
Cn1c(=O)c2c(O)nccc2n(C)c1=O | > 300 °C

SMILES | melting point
COC(=O)C(c1ccc(Cl)cc1)(c1ccc(Cl)cc1)c1ncc[nH]1 | 132 °C
CC1(C)C(=O)Nc2cc3[nH]c(-c4ccnnc4)nc3cc21 | > 360 °C
COc1cc(C(=O)NS(=O)(=O)c2ccccc2C)ccc1Cc1cccc2ccc(C(N)=O)cc12 | 255 to 256 °C
COc1ccc(C(=O)N2c3ccccc3C(n3c4ccccc4c4ccccc43)CC2COCc2ccccc2)cc1OC (stereo not drawn) | 203 to 204 °C
O=C(Nc1ccnn1-c1c(Cl)cc(C(F)(F)F)c(Cl)c1Cl)C(F)(F)F | 140 to 145 °C
Cc1nc(NC(=O)c2cnn3c(C(F)F)cc(-c4ccc(C(F)(F)F)cc4)nc23)sc1S(=O)(=O)NCCN(C)C | 217 °C
NC(=O)c1ccc2cc(Nc3ccc(O)cc3)ccc2c1 | 260 °C
Fc1cc(F)c(-c2ccccc2)c(F)c1F | 86 to 88 °C
CCOC(=O)c1csc(-c2cccnc2)n1 | 73 to 75 °C
C=C(C)COc1ccc(C(=O)C=Cc2ccc(N(C)C)cc2)c(O)c1 | 85 to 87 °C
COCc1cc(C2=NOC(c3cc(Cl)cc(Cl)c3)(C(F)(F)F)C2)ccc1C(=O)NC(=N)OC (stereo not drawn) | 132 to 134 °C
Fc1ccc(-c2nc(S)nc(-c3ccccn3)n2)cc1 | > 270 °C
O=Cc1ccc2c(c1)S(=O)(=O)c1ccccc1N2c1ccccc1 | 260 to 272 °C
COC(=O)c1cccc2c1C(Cc1ccnc(F)c1)(Cc1ccnc(F)c1)c1ccccc1-2 | 126 to 127 °C
CS(=O)(=O)c1ccc(-c2oc(CO)cc(=O)c2Oc2ccc(F)cc2)cc1 | 206 °C
Nc1nc(C(F)(F)F)cc(=O)n1N | 215 to 218 °C
Cc1c(NC(=O)CC(C)(C)C)cc2c(c1C)OC(C)(C)C2(O)c1cccc(CO)c1 (stereo not drawn) | 169 to 171 °C
COc1ccc(-c2ncc(Cl)nc2-c2ccc(OC)cc2)cc1 | 126 to 127 °C
Cc1cc(=O)n(-c2ccc(C(F)(F)F)cc2)[nH]1 | 130 °C
CC(Oc1cc(Oc2ccc(C(F)(F)F)cc2Cl)ccc1[N+](=O)[O-])C(=O)NCC1CCCO1 (stereo not drawn) | 102 to 104 °C

Results, then the molecule that gave them:

melting point | SMILES
60 to 80 °C | Cc1ccccc1C=CCC(CCC(=O)O)(C(=O)C=Cc1ccc(Cl)cc1)c1ccccc1 (stereo not drawn)
117 °C | CCOC(=O)c1cnn2c(-c3cccc(N(CC)C(=O)OC)c3)ccnc12
193 to 195 °C | CN(C)C(=O)c1nc(-c2ccccc2)nc2c1c1ccccc1n2C
133 to 135 °C | O=C(NCCC1OCCO1)c1ccc[nH]1
206 °C | COCC(=O)Nc1ccc(C2=NNC(=O)C3CC23)cc1 (stereo not drawn)
250 °C | CN1C(=O)C(c2ccccc2)(C23CC4CC(CC(C4)C2)C3)N=C1N (stereo not drawn)
97 to 99 °C | CC(C)NCC(O)Cc1ccc([N+](=O)[O-])c(C2OCCO2)c1 (stereo not drawn)
127 to 133 °C | CCc1cccc(C)c1C(=O)N[C@@H](Cc1ccc(-c2c(C)n(C)c(=O)n(C)c2=O)cc1)C(=O)O
206 °C | NC(=O)c1sc2ccc(OCc3ccccc3)cc2c1Cl
164 to 166 °C | O=C1c2ccc(N3CCN(c4ccccc4)CC3)nc2CC2CCCCC12 (stereo not drawn)
163 to 164 °C | CC(C)n1nc(-c2c(Nc3ccccn3)nc(N)nc2-c2ccccc2)ccc1=O
246 to 247 °C | COc1ccc2ncc(CC(N)C(=O)O)cc2c1 (stereo not drawn)
185 to 186 °C | COc1ccccc1C1OC2(CCNCC2)N2CCCCC12 (stereo not drawn)
102 to 103 °C | CC(C)[C@@H]1C[C@@H]([C@H](C[C@H](C(=O)N2C(=O)OC[C@@H]2Cc2ccccc2)C(C)C)N=[N+]=[N-])OC1=O
116 to 120 °C | COC(=O)CC(=O)C[C@H]1NC(=O)[C@@H]1N1C(=O)c2ccccc2C1=O
148 to 150 °C | O=C(c1ccc([N+](=O)[O-])cc1)N1CCCCc2ccccc21
147 to 148 °C | CN(C)C(=O)c1ccc2c(c1)CC(=O)N2
228 to 231 °C | CCOC(=O)c1cnc2c(N=C3C(=O)OC(C)(C)OC3=O)cccc2c1

melting point | SMILES
69 to 70.5 °C | CN(O)C(=O)NCCCCCCCOCc1ccccc1
233 to 234 °C | CC(=O)NCC1CN(c2ccc(N3CCN(c4nc5ccc(F)cc5o4)CC3)c(F)c2)C(=O)O1 (stereo not drawn)
91.5 to 92.8 °C | Cc1ccc2nc(-c3ccccc3F)cc(OCc3ccccc3)c2c1
169 to 170 °C | Cc1cn(-c2cccc(OCCOS(N)(=O)=O)c2)cn1
238 to 239 °C | CCc1nc2c(N)nc3ccc(OCc4ccccc4)cc3c2n1C
174 °C | CC1Oc2ccc(CN3CCN(CCO)CC3)cc2NC1=O (stereo not drawn)
225 °C | NS(=O)(=O)c1ccc(CCN2C(=O)c3ccccc3C2(O)c2ccccc2)cc1 (stereo not drawn)
136 to 138 °C | CCCCCC(CC(=O)Nc1cc(C(=O)O)ccc1C(C)(C)C)c1ccc(CCCC)cc1OC (stereo not drawn)
226 °C | CCCc1noc(-c2ccc(N3CCN(C(=O)c4ccccc4C(F)(F)F)CC3)nn2)n1
260 to 263 °C | O=C(O)c1ccn(-c2ccc(C(=O)O)c(Cl)c2)n1
89 to 91 °C | CN1CCC(c2c[nH]c3cc(NC(=N)c4cccs4)ccc23)C1 (stereo not drawn)
81 to 82 °C | CCOC(=O)C(Cc1ccc(CC(F)(F)C(F)(F)F)cc1)C(=O)c1cccc(Cl)c1 (stereo not drawn)
92 to 94 °C | CN(C)CCCN(C(=O)Cc1ccccc1)c1ccccc1SCc1ccc(Cl)cc1
86 to 87 °C | CCCNC(=O)C1CC(=O)N(Cc2ccccc2)C1 (stereo not drawn)
181 to 182 °C | Cc1nc(-c2cn(CCc3ccc(F)cc3)nn2)sc1C(=O)NCc1ccccc1
170 to 174 °C | CC(=O)SCC(Cc1ccccc1)C(=O)Nc1cc(C(=O)O)ccc1N1CCCCC1 (stereo not drawn)
186 to 189 °C | O=c1oc2ccccc2c(O)c1Sc1ccccc1
150 °C | COC(=O)CCn1c(=O)n(CCN2CCN(c3cccc(Cl)c3)CC2)c(=O)c2cscc21
